# Measured values from patent publication US7163952B2, “Azole compound and medicinal use thereof” (Japan Tobacco Inc., priority 2001, dated 2007).
# Where a name gives a salt, the structure may show the parent alone.
row,SMILES,melting point
1,"CN(CCc1ccc(C(F)(F)F)cc1)c1ccc(-c2csc(N(C)Cc3ccc(C(=O)O)cc3)n2)cc1 [Example 236, 4-((N-methyl-N-(4-(4-(N-methyl-N-(2-(4-trifluoromethylphenyl)ethyl)amino)phenyl)-2-thiazolyl)amino)methyl)benzoic acid]",158 to 159 °C
2,"CN(Cc1ccc(CC(C)(C)C)cc1)c1ccc(-c2csc(N(C)Cc3ccc(C(=O)O)cc3)n2)cc1 [Example 229, 4-((N-(4-(4-(N-(4-(2,2-dimethylpropyl)benzyl)-N-methylamino)phenyl)-2-thiazolyl)-N-methylamino)methyl)benzoic acid]",176 to 177 °C
3,"O=C(O)c1ccc(Nc2nc(-c3cc(Cl)ccc3OCc3ccc(C(F)(F)F)cc3)cs2)c(OCCC2CCCCC2)c1 [Example 179, 4-(4-(5-chloro-2-(4-trifluoromethylbenzyloxy)phenyl)-2-thiazolylamino)-3-(2-cyclohexylethoxy)benzoic acid]",134 to 140 °C
4,"O=C(O)c1ccc(N(CC2CCCCC2)c2nc(-c3cc(Cl)ccc3OCc3ccccc3)cs2)cc1 [Example 160, 4-(N-(4-(2-benzyloxy-5-chlorophenyl)-2-thiazolyl)-N-cyclohexylmethylamino)benzoic acid]",184 to 185 °C
5,CN(Cc1ccc(C2CCCCC2)cc1)c1ccc(-c2csc(N(C)Cc3ccc(C(=O)O)cc3)n2)cc1.CS(=O)(=O)O,167 to 170 °C
6,"O=C(O)c1ccc(N(CCC2CCCCC2)c2nc(-c3cc(F)ccc3OCc3ccccc3)cs2)cc1 [Example 174, 4-(N-(4-(2-benzyloxy-5-fluorophenyl)-2-thiazolyl)-N-(2-cyclohexylethyl)amino)benzoic acid]",125 to 130 °C
7,"O=C(O)c1ccc(CN(CC2CCCCC2)c2nc(-c3nc4ccc(OCc5ccccc5)cc4o3)cs2)cc1 [Example 220, 4-((N-(4-(6-benzyloxy-2-benzooxazolyl)-2-thiazolyl)-N-cyclohexylmethylamino)methyl)benzoic acid]",117 to 119 °C
8,"O=C(O)c1ccc(CN(CC2CCCCC2)c2nc(-c3nc4ccc(OCCc5ccccc5)cc4o3)cs2)cc1 [Example 221, 4-((N-cyclohexylmethyl-N-(4-(6-phenethyloxy-2-benzooxazolyl)-2-thiazolyl)amino)methyl)benzoic acid]",105 to 108 °C
9,"O=C(O)c1ccc(C2(c3nc(-c4ccc(OCc5ccc(C6CCCCC6)cc5)cc4)cs3)CCCCC2)cc1 [Example 100, 4-(1-(4-(4-(4-cyclohexylbenzyloxy)phenyl)-2-thiazolyl)cyclohexyl)benzoic acid]",222 to 224 °C
10,"CN(c1ccc(C(=O)O)cc1)c1nc(-c2ccc(NCc3ccc(Cl)c(Cl)c3)cc2)cs1 [Example 128, 4-(N-(4-(4-(3,4-dichlorobenzylamino)phenyl)-2-thiazolyl)-N-methylamino)benzoic acid]",223 to 225 °C
11,"CN(Cc1ccc(C2CCC(C)(C)CC2)cc1)c1ccc(-c2csc(N(C)Cc3ccc(C(=O)[O-])cc3)n2)cc1.[Na+] [Example 216, sodium 4-((N-(4-(4-(N-(4-(4,4-dimethylcyclohexyl)benzyl)-N-methylamino)phenyl)-2-thiazolyl)-N-methylamino)methyl)benzoate]",230 °C
12,"CC(C)N(Cc1ccc(C(=O)O)cc1)c1nc(-c2cccc(NC(=O)c3ccc(C4CCCCC4)cc3)c2)cs1 [Example 146, 4-((N-(4-(3-(4-cyclohexylbenzoylamino)phenyl)-2-thiazolyl)-N-isopropylamino)methyl)benzoic acid]",228 to 230 °C
13,"CN(c1ccc(C(=O)[O-])cc1)c1nc(-c2ccc(NCc3ccc(C4CCCCC4)cc3)cc2)cs1.[Na+] [Example 263, sodium 4-(N-(4-(4-(4-cyclohexylbenzylamino)phenyl)-2-thiazolyl)-N-methylamino)benzoate]",260 °C
14,"O=C(O)c1ccc(C(=O)c2nc(-c3ccc(OCc4ccc(C5CCCCC5)cc4)cc3)cs2)cc1 [Example 71, 4-(4-(4-(4-cyclohexylbenzyloxy)phenyl)-2-thiazolecarbonyl)benzoic acid]",259 to 261 °C
15,"CC(C)N(Cc1ccc(C(=O)O)cc1)c1nc(-c2ccc(N(Cc3ccccc3)Cc3ccccc3)cc2)cs1 [Example 109, 4-((N-(4-(4-dibenzylaminophenyl)-2-thiazolyl)-N-isopropylamino)methyl)benzoic acid]",144 to 146 °C
16,"O=C(O)c1ccc(N(CCC2CCCCC2)c2nc(-c3cc(Cl)ccc3OCc3ccc(Cl)c(Cl)c3)cs2)cc1 [Example 178, 4-(N-(4-(5-chloro-2-(3,4-dichlorobenzyloxy)phenyl)-2-thiazolyl)-N-(2-cyclohexylethyl)amino)benzoic acid]",195 to 198 °C
17,"CC(C)N(c1ccc(C(=O)[O-])cc1)c1nc(-c2ccc(OCc3ccc(C4CCCCC4)cc3)cc2)cs1.[Na+] [Example 34, sodium 4-(N-(4-(4-(4-cyclohexylbenzyloxy)phenyl)-2-thiazolyl)-N-isopropylamino)benzoate]",230 °C (dec.)
18,"CN(c1ccc(C(=O)O)cc1)c1nc(-c2ccc(OCc3ccc(C4CCCCC4)cc3)cc2)cs1 [Example 22, 4-(N-(4-(4-(4-cyclohexylbenzyloxy)phenyl)-2-thiazolyl)-N-methylamino)benzoic acid]",250 °C (dec.)

row,SMILES,melting point
1,"CN(Cc1ccc(C(=O)O)cc1)c1nc(-c2ccc(OCc3ccc(C4CCCCC4)cc3)cc2)cs1 (as salt: hydrochloride) [Example 252, 4-((N-(4-(4-(4-cyclohexylbenzyloxy)phenyl)-2-thiazolyl)-N-methylamino)methyl)benzoic acid hydrochloride]",174 °C (dec.)
2,"O=C(O)c1ccc(Nc2nc(-c3ccc(OCc4ccc(-c5ccccc5)cc4)cc3)cs2)cc1 [Example 95, 4-(4-(4-(4-biphenylylmethoxy)phenyl)-2-thiazolylamino)benzoic acid]",230 °C (dec.)
3,"COc1cc(COc2ccc3nc(-c4csc(N(CC5CCCCC5)c5ccc(C(=O)O)cc5)n4)oc3c2)cc(OC)c1 [Example 191, 4-(N-cyclohexylmethyl-N-(4-(6-(3,5-dimethoxybenzyloxy)-2-benzooxazolyl)-2-thiazolyl)amino)benzoic acid]",160 to 162 °C
4,"O=C(O)c1ccc(Nc2nc(-c3cccc(OCc4ccc(C5CCCCC5)cc4)c3)cs2)cc1 [Example 138, 4-(4-(3-(4-cyclohexylbenzyloxy)phenyl)-2-thiazolylamino)benzoic acid]",235 to 236 °C
5,CN(c1ccc(C(=O)O)cc1)c1nc(-c2ccc(NCc3ccc(C4CCCCC4)cc3)cc2)cs1.O=S(=O)(O)O,239 °C (dec.)
6,"CC(C)N(c1ccc(C(=O)O)cc1)c1nc(-c2ccc(NC(=O)C3CCCCC3)cc2)cs1 [Example 12, 4-(N-(4-(4-(cyclohexanecarbonylamino)phenyl)-2-thiazolyl)-N-isopropylamino)benzoic acid]",230 °C (dec.)
7,"CC(C)Oc1ccc(C(=O)Nc2ccc(-c3csc(Cc4ccc(C(=O)O)cc4)n3)cc2)cc1 [Example 69, 4-(4-(4-(4-isopropoxybenzoylamino)phenyl)-2-thiazolylmethyl)benzoic acid]",230 °C (dec.)
8,CC(C)N(c1ccc(C(=O)O)cc1)c1nc(-c2ccc(NC(=O)c3ccc(N4C[C@@H](C)O[C@@H](C)C4)cc3)cc2)cs1.Cl,230 °C (dec.)
9,"COc1ccc(OCc2ccc(C(F)(F)F)cc2)c(-c2csc(Nc3ccc(C(=O)O)cc3)n2)c1 [Example 155, 4-(4-(5-methoxy-2-(4-trifluoromethylbenzyloxy)phenyl)-2-thiazolylamino)benzoic acid]",218 to 219 °C
10,"O=C(O)c1ccc(Nc2nc(-c3ccc(OCc4ccc(C5CCCCC5)cc4)cc3)cs2)c(OCc2ccccc2)c1 [Example 73, 3-benzyloxy-4-(4-(4-(4-cyclohexylbenzyloxy)phenyl)-2-thiazolylamino)benzoic acid]",230 °C (dec.)
11,"CCOC(=O)c1ccc(CN(C)c2nc(-c3ccc(OCc4ccc(C5CCCCC5)cc4)cc3)cs2)cc1 [Example 249, ethyl 4-((N-(4-(4-(4-cyclohexylbenzyloxy)phenyl)-2-thiazolyl)-N-methylamino)methyl)benzoate]",117 to 118 °C
12,"CC(C)CN(c1ccc(C(=O)O)cc1)c1nc(-c2ccc(NC(=O)c3ccc(C4CCCCC4)cc3)cc2)cs1 [Example 17, 4-(N-(4-(4-(4-cyclohexylbenzoylamino)phenyl)-2-thiazolyl)-N-isobutylamino)benzoic acid]",230 °C (dec.)
13,"CC(C)N(Cc1ccc(C(=O)O)cc1)c1nc(-c2ccc(OCc3ccc(C4CCCCC4)cc3)cc2)cs1 [Example 65, 4-((N-(4-(4-(4-cyclohexylbenzyloxy)phenyl)-2-thiazolyl)-N-isopropylamino)methyl)benzoic acid]",233 to 234 °C
14,"O=C(O)c1ccc(CN(CCC2CCCCC2)c2nc(-c3cc(Cl)ccc3OCc3ccccc3)cs2)cc1 [Example 164, 4-((N-(4-(2-benzyloxy-5-chlorophenyl)-2-thiazolyl)-N-(2-cyclohexylethyl)amino)methyl)benzoic acid]",158 to 160 °C
15,"CC(=O)OC(C)OC(=O)c1ccc(CN(C)c2nc(-c3ccc(OCc4ccc(C5CCCCC5)cc4)cc3)cs2)cc1 (stereo not drawn) [Example 250, 1-acetoxyethyl 4-((N-(4-(4-(4-cyclohexylbenzyloxy)phenyl)-2-thiazolyl)-N-methylamino)methyl)benzoate]",116 to 117 °C
16,"CC(C)(c1ccc(C(=O)O)cc1)c1nc(-c2ccc(NC(=O)c3ccc(N4CCCCC4)cc3)cc2)cs1 [Example 45, 4-(1-methyl-1-(4-(4-(4-piperidinobenzoylamino)phenyl)-2-thiazolyl)ethyl)benzoic acid]",268 to 271 °C
17,"O=C(O)c1ccc(N(CC2CCCCC2)c2nc(-c3nc4ccc(OCc5ccc(Cl)c(Cl)c5)cc4o3)cs2)cc1 [Example 187, 4-(N-cyclohexylmethyl-N-(4-(6-(3,4-dichlorobenzyloxy)-2-benzooxazolyl)-2-thiazolyl)amino)benzoic acid]",182 to 189 °C
18,CC(C)N(c1cccc(C(=O)O)c1)c1nc(-c2ccc(NC(=O)c3ccc(N4CCCCC4)cc3)cc2)cs1.Cl,220 °C (dec.)
